Structures are written as SMILES. Entries after “also recorded” stand apart in the source; their conditions may differ.

Experimental findings from patent US20210161883A1, “EZH2 INHIBITOR-INDUCED GENE EXPRESSION” (Constellation Pharmaceuticals, Inc., priority 2017, published 2021) are described below.

Test [1] concerns global H3K27me3 levels in Karpas-422 GCB-DLBCL cells. Put plainly: H3K27me3 western blotting in Karpas-422 cells treated with EZH2 inhibitors. It is filed as cell-based, human. Conditions: 1.5 μM, 4 days, vs DMSO, total H3 as control. As for the experimental part:
Lymphoma cell lines were grown in 10 ml cultures (as described in 2.1). […] After drug treatment, cells were centrifuged at 500×g for 3 min, supernatant was removed, and cell pellet was resuspended in 0.75 ml Trizol Reagent (Life Technologies, catalog #15596-026). RNA was extracted as per the manufacturer's protocol, resuspended in nuclease-free water, quantified using a NanoDrop 2000 UV-vis spectrophotometer (Thermo Scientific), and sent to Ocean Ridge Biosciences (http://www.oceanridgebio.com/) for RNA-sequencing. […]
In order to detect potential EZH2 inhibitor-mediated gene expression changes that could serve as a manifestation of target engagement, Karpas-422 GCB-DLBCL cells were treated with vehicle (dimethyl sulfoxide; DMSO) or Compound 1 for 4 days. […] The samples that were committed to RNA-sequencing were analyzed for changes in H3K27me3 levels by western blotting. […]

Test [2] has as its system Karpas-422 GCB-DLBCL cells. Put plainly: RNA-sequencing gene expression profiling of Karpas-422 cells. It is filed as cell-based, human. The note with it: 1.5 μM, 4 days. On the procedure:
Lymphoma cell lines were grown in 10 ml cultures (as described in 2.1). Cells were treated with 0.1% DMSO, 1.5 μM Compound 1 or in the presence of 1.5 μM other EZH2 inhibitors such as GSK126 and EPZ6438 for 4 days. After drug treatment, cells were centrifuged at 500×g for 3 min, supernatant was removed, and cell pellet was resuspended in 0.75 ml Trizol Reagent (Life Technologies, catalog #15596-026). RNA was extracted as per the manufacturer's protocol, resuspended in nuclease-free water, quantified using a NanoDrop 2000 UV-vis spectrophotometer (Thermo Scientific), and sent to Ocean Ridge Biosciences (http://www.oceanridgebio.com/) for RNA-sequencing. Cell samples were collected and total RNA was prepared (see 2.2). […] (2) 7 DLBCL cell lines treated for 4 days with GSK343 (generated in two separate experiments, with HT and SUDHL6 comprising the first experiments, the other 5 cell lines in a second experiment. For the HT and SUDHL6 cell samples in dataset 2, reads were aligned to the hg19 genome using bowtie version 0.12.9. The other datasets were aligned to the hg19 genome with Tophat 1.4.1 The aligned read files were sorted and duplicates removed using sort and rmdup functions from samtools version 0.1.182. See Li, H. et al. The Sequence Alignment/Map format and SAMtools. Bioinformatics 25, 2078-2079 (2009). […]

The subject of test [3] is Karpas-422 cells. Put plainly: Multiplexed QuantiGene assay of EZH2-controlled signature genes in Karpas-422 cells in vitro. It counts as cell-based, human. The note with it: 1.5 μM, 4 days, vs DMSO. On the procedure: The gene list described in Table 2 was submitted to Affymetrix, and a multiplexed QuantiGene® assay (https://www.ebioscience.com/application/gene-expression/quantigene-plex-assay.htm) probe set on the basis was generated specific to the human genome (see Appendix B). The primer and probe sequences used to generate the multiplex assay were not made available by the vendor.
In addition to validating the assay using a Karpas-422 mouse xenograft model, RNA from Karpas-422 cells treated with 1.5 μM Compound 1 for 4 days was also used. Samples were processed and quantitated as described above. […]
(§1) For each gene in each sample, the background median fluorescence intensity (MFI) value (recorded on the Luminex Magpix) was subtracted from the gene's measured MFI value. […]
(§2) Following regularization, the data from each well was processed independently by first generating a normalization factor by taking the geometric mean of regularized background-subtracted MFI values for 4 housekeeping genes (ACTB, POLR2A, PPIB, TBP). […] If more than 1 technical replicate was run for an individual sample, an average value was then calculated for each gene. These values were then converted to log 2 space, and log 2 fold change values were determined by subtracting vehicle/control values from treated values. […]

The subject of test [4] is Karpas-422 xenograft. Description: Multiplexed QuantiGene assay of signature genes in Karpas-422 mouse xenograft tumors. It is filed as in vivo. On the procedure: (§3) FIGS. 4A and B illustrate a comparison of Compound 1-mediated H3K27me3 level and gene expression changes in phenotypically responsive Karpas-422 xenografts where (A) represents tumor samples (n=4) from a Karpas-422 mouse xenograft experiment in which mice were dosed twice daily, orally with vehicle, 100 or 200 mg/kg of Compound 1 for 4, 7, or 14 days, and were analyzed by ELISA assays to determine H3K27me3 levels; and (B) is the same tumor samples described in (A) (n=4), but were analyzed by a multiplexed QuantiGene® assay for the transcript levels of 50 genes, 4 of which were housekeeping.
For isolation of RNA from tissues: Tumor samples from a Karpas-422 mouse xenograft experiment in which mice were dosed BID with vehicle, 100 or 200 mpk Compound 1 for 4, 7, or 14 days, were obtained. Tumors were frozen in liquid nitrogen, then pulverized. A small aliquot of frozen, pulverized tissue was resuspended in 600 μl buffer RLT (Qiagen) containing 65 mM DTT, applied to a QIAShredder column (Qiagen), and centrifuged for 3 min at 20,000×g. […] RNA was eluted in nuclease-free water, and concentrations were normalized following quantitation on a NanoDrop 2000 UV-vis spectrophotometer.
Initial tests were performed to determine the linearity of the QuantiGene® Plex Set, followed by full validation of the assay showing time- and dose-dependent gene expression changes in a mouse xenograft treated with Compound 1. […] The QuantiGene® assay was performed as per the manufacturer's protocol, and quantitated on a Luminex Magpix. […]
as §1
Following regularization, the data from each well was processed independently by first generating a normalization factor by taking the geometric mean of regularized background-subtracted MFI values for 4 housekeeping genes (ACTB, POLR2A, PPIB, TBP). […] If more than 1 technical replicate was run for an individual sample, an average value was then calculated for each gene. […]

For test [5], the system named is H3K27me3 levels in Karpas-422 xenografts. Description: H3K27me3 ELISA of Karpas-422 mouse xenograft tumor samples. It is filed as in vivo. The note with it: Karpas-422 xenograft, 100 or 200 mg/kg BID oral. As for the experimental part:
as §3

Test [6] concerns RL xenograft (EZH2 inhibitor-insensitive GCB-DLBCL cell line). Put plainly: RL mouse xenograft tumor volume. Conditions: 200 mg/kg twice daily, 18 days. It counts as in vivo. As for the experimental part: (§4) To verify the gene signature as a readout of target engagement and not phenotypic responsive, an EZH2 inhibitor-insensitive GCB-DLBCL cell line, RL, was utilized in a mouse xenograft model. The RL xenograft bearing mice were treated twice daily with 200 mg/kg Compound 2 or vehicle control for 18 days. […] Tumors were harvested 6 hours post-last dose on day 18 of treatment and processed and analyzed using the QuantiGene® Plex assay, as described above.

Test [7] has as its system RL xenograft. Put plainly: Multiplexed QuantiGene assay of signature genes in RL mouse xenograft tumors. It is filed as in vivo. The note with it: 200 mg/kg twice daily, day 18, tumors harvested 6 hours post-last dose. As for the experimental part:
as §4, §1, §2
To determine the statistical significance of the engagement score, a phenotype permutation test was performed by randomly assigning the empirically determined expression values for each gene to the control or treated condition. […]

In the case of `COc1cc(C)[nH]c(=O)c1CNC(=O)c1c(C)n([C@H](C)C2CCN(CC(F)(F)F)CC2)c2ccccc12` [Compound 1, (R)—N-((4-methoxy-6-methyl-2-oxo-1,2-dihydropyridin-3-yl)methyl)-2-methyl-1-(1-(1-(2,2,2-trifluoroethyl)piperidin-4-yl)ethyl)-1H-indole-3-carboxamide], the “global H3K27me3 levels (western blotting)” value in test [1] was “effectively reduced global H3K27me3 levels”. Also, the “gene expression changes compared with those of other EZH2 inhibitors (GSK126, EPZ-6438)” value in test [2] was “remarkably similar”. In test [2] (vs DMSO, log 2 fold change >0.8, p<0.05), the “number of genes with significantly changed expression” value was found to be 604 genes. In addition, the “signature gene expression (QuantiGene)” value in test [3] was “significant increase and decrease of signature gene expression”. Moreover, the “signature gene expression in tumors vs vehicle-treated tumors” value in test [4] (100 or 200 mg/kg BID oral, 4, 7 and 14 days, tumors harvested 6 hours post last dose) is “significant induction of signature genes in a dose- and time-dependent manner; also recorded: significant alteration of signature genes; also recorded: significantly induced EZH2-target genes”. Besides, the “gene expression signature (aggregate gene score), treatment arms vs vehicle arms” value in test [4] (100 or 200 mg/kg BID oral, all three time points (4, 7, 14 days)) was “robust and statistically significant change”. The “magnitude of signature gene expression changes in tumors compared with cells treated in vitro” value in test [4] (4 days, 100 mg/kg BID and 200 mg/kg BID, vs cells at 1.5 μM for 4 days) is given as “did not show the same magnitude of signature gene expression changes”. In addition, the “H3K27me3 levels normalized to total histone H3 (ELISA)” value is “significant reduction in H3K27me3 levels” in test [5] (14 days, t-test p<0.05 vs vehicle) and “not statistically significant” in test [5] (earlier time points (4, 7 days)).
As to `CCS(=O)(=O)N1CCC([C@@H](C)n2c(C)c(C(=O)NCc3c(OC)cc(C)[nH]c3=O)c3ccccc32)CC1` [Compound 2], the “tumor volume vs vehicle-treated mice” value in test [6] is listed as “No reduction in tumor volume”. For the same compound, the “gene signature score (QuantiGene)” value in test [7] is reported as “statistically significant gene signature score”.
On to `CCC(C)n1cc(C)c2c(C(=O)NCc3c(C)cc(C)[nH]c3=O)cc(-c3ccc(N4CCNCC4)nc3)cc21` (stereo not drawn) [GSK126, reference compound], for which, in test [1], the “global H3K27me3 levels (western blotting)” value is “substantial loss of H3K27me3”.
